From patent US6060516A, “N^1 -propargylhydrazines, N^2 -propargylhydrazines and their analogs for the treatment of depression, anxiety and neurodegeneration” (CV Technologies, Inc., priority 1998, dated 2000)

Key:
[1] = target: T1, rat brain monoamine oxidase-A (Rattus norvegicus, UniProt P21396); test: Monoamine oxidase-A inhibiting activity in vitro (radiochemical, 5-hydroxytryptamine substrate, rat brain homogenate); type: biochemical; details: for inhibition at 100 µM: 1 × 10^-4 M; for inhibition at 10 µM: 1 × 10^-5 M; for inhibition at 1 µM: 1 × 10^-6 M; for inhibition at 0.1 µM: 1 × 10^-7 M; for inhibition at 0.01 µM: 1 × 10^-8 M
T1 construct: appropriately diluted homogenates of rat brain or liver; from tissue; host or cells: rat brain or liver homogenate
T1 sequence (P21396 1-526): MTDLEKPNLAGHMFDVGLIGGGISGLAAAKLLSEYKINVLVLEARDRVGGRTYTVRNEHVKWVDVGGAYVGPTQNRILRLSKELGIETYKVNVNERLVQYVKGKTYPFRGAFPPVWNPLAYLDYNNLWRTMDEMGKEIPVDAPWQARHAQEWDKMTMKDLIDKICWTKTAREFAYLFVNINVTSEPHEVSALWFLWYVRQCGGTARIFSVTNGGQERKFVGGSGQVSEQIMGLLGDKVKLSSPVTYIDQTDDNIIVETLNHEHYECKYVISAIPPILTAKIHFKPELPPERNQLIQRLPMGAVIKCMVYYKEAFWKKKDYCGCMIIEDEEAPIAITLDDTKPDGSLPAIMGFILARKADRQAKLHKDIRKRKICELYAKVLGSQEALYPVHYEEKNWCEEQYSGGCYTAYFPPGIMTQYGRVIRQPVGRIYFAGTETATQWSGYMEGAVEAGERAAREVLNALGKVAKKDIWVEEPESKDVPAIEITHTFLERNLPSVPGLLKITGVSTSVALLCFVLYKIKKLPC
Description: Radiolabelled 5-hydroxytryptamine was used as the substrate for monoamine oxidase-A. Various concentrations of the compounds were incubated in appropriately diluted homogenates of rat brain or liver in a 0.2 M potassium phosphate buffer. Incubations proceeded at 37° C. for 10 minutes. Incubation was terminated by the addition of acid and the radiolabelled product (5-hydroxyindoleacetic acid) was extracted and quantified by liquid scintillation counting procedures. Incubations were done in triplicate and incubations containing phenelzine were included for comparison. The percent inhibition of monoamine oxidase-A activity compared to controls without the compounds of the present invention was calculated.

[2] = target: T2, rat brain monoamine oxidase-B (Rattus norvegicus, UniProt P19643); test: Monoamine oxidase-B inhibiting activity in vitro (radiochemical, β-phenylethylamine substrate, rat brain homogenate); type: biochemical; details: for inhibition at 100 µM: 1 × 10^-4 M; for inhibition at 10 µM: 1 × 10^-5 M; for inhibition at 1 µM: 1 × 10^-6 M; for inhibition at 0.1 µM: 1 × 10^-7 M; for inhibition at 0.01 µM: 1 × 10^-8 M
T2 construct: appropriately diluted homogenates of rat brain or liver; from tissue; host or cells: rat brain or liver homogenate
T2 sequence (P19643 1-520): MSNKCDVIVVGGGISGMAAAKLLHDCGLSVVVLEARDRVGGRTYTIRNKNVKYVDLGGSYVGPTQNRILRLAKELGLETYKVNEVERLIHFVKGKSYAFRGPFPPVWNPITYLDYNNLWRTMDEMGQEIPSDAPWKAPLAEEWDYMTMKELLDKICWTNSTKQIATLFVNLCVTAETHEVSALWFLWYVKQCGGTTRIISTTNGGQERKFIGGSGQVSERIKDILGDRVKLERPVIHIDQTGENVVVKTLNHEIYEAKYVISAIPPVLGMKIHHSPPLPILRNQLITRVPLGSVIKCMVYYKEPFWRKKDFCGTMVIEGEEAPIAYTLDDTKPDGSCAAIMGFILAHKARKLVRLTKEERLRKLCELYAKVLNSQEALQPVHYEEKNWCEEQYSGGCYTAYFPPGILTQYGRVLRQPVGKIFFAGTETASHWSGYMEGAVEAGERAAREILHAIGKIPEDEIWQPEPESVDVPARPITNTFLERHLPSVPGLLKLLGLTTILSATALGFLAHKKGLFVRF
Description: Radiolabelled β-phenylethylamine was employed as a substrate for monoamine oxidase-B. Various concentrations of the compounds of interest were incubated in appropriately diluted homogenates of rat brain or liver in a 0.2 M potassium phosphate buffer. Incubations proceeded at 37° C. for 10 minutes. Incubation was terminated by the addition of acid and the radiolabelled product (phenylacetaldehyde and phenylacetic acid) was extracted and quantified by liquid scintillation counting procedures. Incubations were done in triplicate and incubations containing phenelzine were included for comparison. The percent inhibition of monoamine oxidase-B activity compared to controls containing no drug was calculated.

[3] = tested on: rat brain and liver monoamine oxidase-A; test: Monoamine oxidase-A inhibiting activity ex vivo; type: in vivo; details: 5.75 μmol/kg, 5 hr, i.p. in 10% DMSO
Description: (§1) Radiolabelled 5-hydroxytryptamine was used as a substrate for monoamine oxidase-A. The compounds of interest were either injected intraperitonealy in DMSO or administered by gavage in water for various periods. The animals were killed by decapitation and the brains and livers immediately removed and frozen until assayed for monoamine oxidase-A activity. Tissues were homogenized and appropriately diluted in buffer prior to incubation. Incubations proceeded at 37° C. for 10 minutes. Incubation was terminated by the addition of acid and the radiolabelled product (5-hydroxyindoleacetaldehyde and 5-hydroxyindoleacetic acid) was extracted and quantified by liquid scintillation counting procedures. Incubations were done in triplicate and incubations containing phenelzine were included for comparison. The percent inhibition of monoamine oxidase-A activity compared to controls containing no drug was calculated.
Values are the mean ± the standard error based on (n) determinations.
Oral doses were administered as 75 μmol/kg on day 1, 75 μmol/kg on
day 2 and the animals were killed 5 hours later.

[4] = tested on: DSP-4 induced noradrenaline depletion in mouse hippocampus; test: Prevention of DSP-4 induced noradrenaline depletion in mouse hippocampus; type: in vivo
Description: (§2) Neuroprotectant activity was evaluated by examining the prevention of DSP-4 induced noradrenaline depletion in mouse hippocampus as described in Yu, P. H., Davis, B. A., Fang, J. and Boulton, A. A. (1994), Neuroprotective effect of some monoamine oxidase-B inhibitors against DSP-4 induced noradrenaline depletion in the mouse hippocampus, J. Neurochem. 63: 1820-1828. Briefly, mice were injected (i.p.) with either 20% DMSO or potential neuroprotectants (10 mg/kg in 20% DMSO). One hour later they were injected with either water or DSP-4 (50 mg/kg in water). One week later the mice were killed and the brains removed and the hippocampus dissected out. The hippocampus was frozen and saved for estimation of noradrenaline and other aminergic neurotransmitters and their metabolites as in Sloley, B. D. and Goldberg J. I. (1991), Determination of γ-glutamyl conjugates of monoamines by means of high-performance liquid chromatography with electrochemical detection and application to gastropod tissues, J. Chromatog. 567: 49-56. The rest of the brain was frozen and retained for estimation of monoamine oxidase activities ex vivo as described earlier.

MAO-A = MAO-A inhibition ex vivo in DSP-4 treated mice (brain); set-up: species or system mouse
Description: as §1, with “The compounds were evaluated for ex vivo monoamine oxidase-A inhibiting activity using the radiochemical procedure of Lyles, G. A. and Callingham, B. A. (1982). […] Biochem. Pharmacol. 31: 1417-1424. Radiolabelled” for “Radiolabelled”
as §2

[5] = tested on: NA, DA, 5-HT, 5-HIAA and DOPAC concentrations in rat hypothalamus; test: Rat hypothalamus amine and amine metabolite concentrations; type: in vivo; details: 5.75 μmol/kg, 5 hr, ip
Description: The effects of various doses of CVT-P040 on the concentrations of hypothalamus amine neurotransmitters and their metabolites were evaluated by examining concentrations of noradrenaline (NA), dopamine (DA), 5-hydroxytryptamine (5-HT), 5-hydroxyindoleacetic acid (5-HIAA) and 3,4-dihydroxyphenylacetic acid (DOPAC) in rat hypothalami 5 hours after the injection of the drug. […] The brains were removed and divided in half. One half of the brain was frozen in isopentane on dry ice and retained for estimates of amino acid neurotransmitter concentrations. The other half had the hypothalamus removed and frozen on dry ice for later estimates of amines and their metabolites according to the method of Sloley, B. D. and Goldberg J. I. (1991), Determination of γ-glutamyl conjugates of monoamines by means of high-performance liquid chromatography with electrochemical detection and application to gastropod tissues, J. Chromatog. 567: 49-56. The rest of the brain was frozen on dry ice for ex vivo examination of MAO activity as described earlier.

[6] = tested on: DSP-4 induced noradrenaline depletion in mouse hippocampus; test: Prevention of DSP-4 induced noradrenaline depletion in mouse hippocampus; type: in vivo; details: 10 mg/kg then DSP-4 50 mg/kg; saline control experiment
PC12 cells = test: PC12 neurite outgrowth (neurotrophic effect); type: cell-based; details: for Index of Neurite Outgrowth: seven days
Description: The effects of CVT-P040 on neurite outgrowth in cell culture were investigated using an established PC 12 pheochromocytoma cell culture. The effects of CVT-P040 and nerve growth factor on neurite outgrowth were estimated using the method described by Rydel, R. E and Greene, L. A.(1987), Acidic and basic fibroblast growth factors promote stable neurite outgrowth and basic neuronal differentiation in cultures of PC12 cells, J. Neuroscience 7: 3639-3653. Briefly, PC12 cells were seeded and maintained in 100 cm^2 tissue culture dishes at 37° C. in RPMI1640 media containing 1% antibiotics, 10% heat inactivated horse serum and 5% fetal bovine serum in a water saturated atmosphere of 95% air and 5% CO2. The cells were mechanically dislodged and plated into 35 mm collagen-coated tissue culture dishes containing a total of 2.0 ml complete medium at a density of […]. The medium was changed 3 times/week. Cellular responses to CVT-P040 and nerve growth factor (NGF) were determined by counting the number of PC12 cells containing processes. Photographs of the cells were taken after seven days treatment. Two cell fields were chosen in each dish and the photographs developed and printed. […] The neurite index was calculated using the following formula; Neurite Index=total neurite score (ΣS)/ total cell number (ΣN); ΣS=S1×N+S2×N +S3×N+S4×N, where N is the number of cells in each cell field.

[7] = 10 mg/kg i.p. then DSP-4 50 mg/kg, 20% DMSO control experiment

| Compound | inhibition at 100 µM [1] | inhibition at 10 µM [1] | inhibition at 100 µM [2] | inhibition at 10 µM [2] | inhibition at 1 µM [1] | inhibition at 0.1 µM [1] | inhibition at 0.01 µM [1] | inhibition at 1 µM [2] | inhibition at 0.1 µM [2] | inhibition at 0.01 µM [2] | also measured |
| --- | --- | --- | --- | --- | --- | --- | --- | --- | --- | --- | --- |
| C#CCNNCCc1ccccc1 [CVT-P039, N^2 -propargylphenelzine] | 31.6% | -25.8% | 20.9% | -0.2% | – | – | – | – | – | – | – |
| C#CCN(C)[C@H](C)Cc1ccccc1 [(-)-deprenyl, reference compound] | – | – | – | – | – | – | – | – | – | – | % Inhibition Monoamine Oxidase-A ([3]; brain): -0.6 ± 1.1%; % Inhibition Monoamine Oxidase-A ([3]; liver): 8.0 ± 2.2%; % NA Restoration [4, 7]: 86.6%; NA [4, 7]: 315 ± 34 ng/g; protection against DSP-4 induced noradrenaline depletion / neuroprotective effect ([4]; 10 mg/kg, mouse hippocampus, in words): significantly protected against DSP-4 induced noradrenaline depletion; MAO-A % Inhibition (MAO-A; [7]): 18.8 ± 6.0%; MAO-A % Inhibition (MAO-A; 10 mg/kg then DSP-4 50 mg/kg, saline control experiment): 9.9 ± 6.0%; 5-HIAA [5]: 407 ± 22 ng/g; 5-HT [5]: 821 ± 44 ng/g; DA [5]: 541 ± 44 ng/g; DOPAC [5]: 87 ng/g; NA [5]: 1510 ± 70 ng/g; % NA Restoration [6]: 73.1%; NA [6]: 432 ± 13 ng/g |
| NGF: nerve growth factor (NGF) | – | – | – | – | – | – | – | – | – | – | Index of Neurite Outgrowth (PC12 cells; NGF 0.1 ng/ml): 0.58 ± 0.03; Index of Neurite Outgrowth (PC12 cells; NGF 0.3 ng/ml): 0.79 ± 0.07; Index of Neurite Outgrowth (PC12 cells; NGF 1.0 ng/ml): 1.16 ± 0.06; neurite outgrowth in PC12 cells (PC12 cells; NGF 0.1, 0.3 and 1.0 ng/ml, in words): increased neurite outgrowth in PC12 cells |
| C#CCN(N)Cc1ccccc1 [CVT-P046, N^1 -propargylbenzylhydrazine] | 100% | 99.4% | 100% | 92.3% | 49.4% | 18.5% | -5% | 86.2% | 64.9% | 18.6% | – |
| C#CCN(N)c1ccccc1 [CVT-P047, N^1 -propargylphenylhydrazine] | 99.7% | 78.2% | 100% | 94.3% | 15.9% | -3.8% | -2.9% | 65.1% | 17.9% | 0.1% | – |
